Test results from PubChem BioAssay AID2060491 (Molecular Pharmacology Branch, DTP, NCI, 2025).

System: 857933-349-R-J2-PDC complex spheroids, viability
Test: Anticancer human tumor 857933-349-R-J2-PDC patient-derived colon adenocarcinoma cell line growth inhibition [GQUAD]
Conditions: for IC50: curve of first compound; for viability, T/C: stronger effect = lower value
From the text: DNA G-quadruplex Stabilizer Agents in Combinations in Complex Spheroids
A high-throughput screen of multi-cell type tumor spheroids was designed to identify active combinations of DNA G-quadruplex stabilizer agents and targeted small molecules. Complex spheroids include a stromal component modeled by human endothelial cells (HUVEC) and fibroblasts modeled by human mesenchymal stem cells (MSCs). The concentration ranges selected for each drug and investigational agent were based upon clinically achievable concentrations if the clinical Cmax of the agent was known.
Compounds. The drugs and investigational agents: pidnarulex (CX-5461; NSC782164), APTO-253 (NSC789042), BRACO-19 (NSC847499), peposertib (NSC802822), ceralasertib (NSC780249), elimusertib (NSC800525), camonsertib (NSC841442), AZD-1390 (NSC803789), olaparib (NSC753686), talazoparib (NSC767125), ART-558 (NSC835418), sotorasib (NSC818433), MRTX-1133 (NSC836407), SN-38 (NSC673596), topotecan (NSC609699), etoposide (NSC141540), doxorubicin (NSC123127), gemcitabine (NSC613327), 5-fluorouracil (NSC19893), paclitaxel (NSC125973), vemurafenib (NSC761431), panobinostat (NSC761190), R-306465 (JNJ-16241199; NSC773264), adavosertib (NSC754352), TP-3654 (NSC805149), carboplatin (NSC241240), KSQ-4279 (NSC840948), and staurosporine (NSC755774) were obtained from the National Cancer Institute (NCI) Developmental Therapeutics Program Chemical Repository (34). The FDA-approved anticancer drug set is available from the NCI Developmental Therapeutics Program. […] The stock solutions were prepared in dimethyl sulfoxide (DMSO, Sigma-Aldrich, St. Louis, MO, cat. D2650) at 800-fold the tested concentration and stored at -70 degrees C prior to their use. All drugs and investigational agents were tested over a range starting from a high concentration at or near the clinical Cmax and decreasing in half-log increments. If the clinical Cmax for an agent had not been determined, the highest concentration tested was 10 microM.
2.3 Cell Culture. All cells were maintained in an incubator at 37 degrees C and 5% CO2 with 95% humidity. The PDC lines were cultured according to standard operating procedures established by the NCI PDMR. All PDCs were thawed and cultured in Matrigel-coated flasks prepared with a working solution of 1X Ham's F-12 nutrient mix, without supplementation (Invitrogen, cat. 11765054), 100 U/mL penicillin-streptomycin (Invitrogen, cat. 15140122), and 2.5% Matrigel (Corning Inc., cat. 354248) for the first three passages. The 857933-349-R-J2-PDC line was cultured in 6C/Colon 1B media, which includes advanced DMEM/F-12 (Thermo Fisher Scientific, cat. 12634028), 10 mM HEPES (Thermo Fisher Scientific, cat. 15630080), 1X GlutaMAX supplement (Thermo Fisher Scientific, cat. 35050061), 0.1 mg/mL primocin (InvivoGen, cat. ant-pm-2), 10% defined fetal bovine serum, heat inactivated (HyClone Laboratories Inc., cat. SH30070.03HI), 50% L-WRN conditioned media (ATCC, cat. CRL-3276), 1.25 mM N-Acetyl-L-cysteine (Sigma-Aldrich, cat. A9165), 10 mM nicotinamide (Sigma-Aldrich, cat. N0636), 1X B-27 supplement (Thermo Fisher Scientific, cat. 17504044), 1X N-2 supplement (Thermo Fisher Scientific, cat. 17502048), 10 microM Y-27632 dihydrochloride (Tocris Bioscience, cat. 1254), and 50 ng/mL human EGF recombinant protein (Thermo Fisher Scientific, cat. PHG0311). The 485176-168-R4-J1-PDC line was cultured in Panc media, which includes all 6C/Colon 1B media components plus 100 ng/mL human FGF-10 (Thermo Fisher Scientific, cat. 100-26), 500 nM SB-431542 (Selleckchem, cat. S1067), and gastrin (Tocris, cat. 3006).
[…]

[1] = second compound 0.0316 µM, first compound 0.000999 µM
[2] = second compound 0.0316 µM, first compound 0.00316 µM
[3] = second compound 0.0316 µM, first compound 0.00999 µM
[4] = second compound 0.0316 µM, first compound 0.0316 µM
[5] = second compound 0.0316 µM, first compound 0.0999 µM
[6] = second compound 0.0316 µM, first compound 0.316 µM
[7] = second compound 0.1 µM, first compound 0.000999 µM
[8] = second compound 0.1 µM, first compound 0.00316 µM
[9] = second compound 0.1 µM, first compound 0.00999 µM
[10] = second compound 0.1 µM, first compound 0.0316 µM
[11] = second compound 0.1 µM, first compound 0.0999 µM
[12] = second compound 0.1 µM, first compound 0.316 µM
[13] = second compound 0.316 µM, first compound 0.000999 µM
[14] = second compound 0.316 µM, first compound 0.00316 µM
[15] = second compound 0.316 µM, first compound 0.00999 µM
[16] = second compound 0.316 µM, first compound 0.0316 µM
[17] = second compound 0.316 µM, first compound 0.0999 µM
[18] = second compound 0.316 µM, first compound 0.316 µM
[19] = second compound 1 µM, first compound 0.000999 µM
[20] = second compound 1 µM, first compound 0.00316 µM
[21] = second compound 1 µM, first compound 0.00999 µM
[22] = second compound 1 µM, first compound 0.0316 µM
[23] = second compound 1 µM, first compound 0.0999 µM
[24] = second compound 1 µM, first compound 0.316 µM
[25] = second compound 3.16 µM, first compound 0.000999 µM
[26] = second compound 3.16 µM, first compound 0.00316 µM
[27] = second compound 3.16 µM, first compound 0.00999 µM
[28] = second compound 3.16 µM, first compound 0.0316 µM
[29] = second compound 3.16 µM, first compound 0.0999 µM
[30] = second compound 3.16 µM, first compound 0.316 µM
[31] = second compound 10 µM, first compound 0.000999 µM
[32] = second compound 10 µM, first compound 0.00316 µM
[33] = second compound 10 µM, first compound 0.00999 µM
[34] = second compound 10 µM, first compound 0.0316 µM
[35] = second compound 10 µM, first compound 0.0999 µM
[36] = second compound 10 µM, first compound 0.316 µM
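Note: spheroids exposed to compounds for one week before readout.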
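Throughout, for viability, T/C: percent viability relative to vehicle DMSO wells taken as 100%.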

CC[C@@]1(O)C(=O)OCc2c1cc1n(c2=O)Cc2cc3c(CN(C)C)c(O)ccc3nc2-1 + Cc1[nH]c2ccc(F)cc2c1-c1nc2c3cccnc3c3ncccc3c2[nH]1 was tested, and the IC50 (second compound 0.0316 µM) was 153 nM, the IC50 (second compound 0.1 µM) was 130 nM and the IC50 (second compound 0.316 µM) was 144 nM. For the same molecule, the IC50 (second compound 1 µM) was 164 nM, the IC50 (second compound 3.16 µM) was 132 nM and the IC50 (second compound 10 µM) was 192 nM. For the same molecule, the viability, T/C [1] was 96.7%, the viability, T/C [2] was 94.6% and the viability, T/C [3] was 89.8%. For the same molecule, the viability, T/C [4] was 63.5%, the viability, T/C [5] was 60.8% and the viability, T/C [6] was 39.6%. For the same molecule, the viability, T/C [7] was 91.8%, the viability, T/C [8] was 99.7% and the viability, T/C [9] was 90.2%. It also gave a viability, T/C [10] of 67.7%, a viability, T/C [11] of 56.6% and a viability, T/C [12] of 39.7%. It also gave a viability, T/C [13] of 102%, a viability, T/C [14] of 93.6% and a viability, T/C [15] of 97.6%. For the same molecule, the viability, T/C [16] was 72.6%, the viability, T/C [17] was 54.9% and the viability, T/C [18] was 42.8%. For the same molecule, the viability, T/C [19] was 103%, the viability, T/C [20] was 89.1% and the viability, T/C [21] was 92.8%. The viability, T/C [22] was 73.9%, the viability, T/C [23] was 60.5% and the viability, T/C [24] was 36.6%. The viability, T/C [25] was 97.8%, the viability, T/C [26] was 95.7% and the viability, T/C [27] was 88.8%. The viability, T/C [28] was 90.8%, the viability, T/C [29] was 53.4% and the viability, T/C [30] was 39.2%. For the same molecule, the viability, T/C [31] was 105%, the viability, T/C [32] was 86.2% and the viability, T/C [33] was 89.4%. It also gave a viability, T/C [34] of 73.7%, a viability, T/C [35] of 62.6% and a viability, T/C [36] of 40.4%.

In the case of Cn1ncnc1[C@H]1c2n[nH]c(=O)c3cc(F)cc(c23)N[C@@H]1c1ccc(F)cc1 + Cc1[nH]c2ccc(F)cc2c1-c1nc2c3cccnc3c3ncccc3c2[nH]1, the IC50 (second compound 0.0316 µM) is reported as greater than 316 nM, the IC50 (second compound 0.1 µM) is reported as greater than 316 nM and the IC50 (second compound 0.316 µM) is reported as greater than 316 nM. It also gave an IC50 (second compound 1 µM) greater than 316 nM, an IC50 (second compound 3.16 µM) greater than 316 nM and an IC50 (second compound 10 µM) greater than 316 nM. For the same molecule, the viability, T/C [1] was 104%, the viability, T/C [2] was 86% and the viability, T/C [3] was 103%. It also gave a viability, T/C [4] of 89.7%, a viability, T/C [5] of 106% and a viability, T/C [6] of 109%. For the same molecule, the viability, T/C [7] was 95.8%, the viability, T/C [8] was 105% and the viability, T/C [9] was 98%. For the same molecule, the viability, T/C [10] was 92.7%, the viability, T/C [11] was 102% and the viability, T/C [12] was 104%. It also gave a viability, T/C [13] of 97.3%, a viability, T/C [14] of 112% and a viability, T/C [15] of 97%. The viability, T/C [16] was 104%, the viability, T/C [17] was 102% and the viability, T/C [18] was 98.6%. For the same molecule, the viability, T/C [19] was 96.1%, the viability, T/C [20] was 101% and the viability, T/C [21] was 97.4%. For the same molecule, the viability, T/C [22] was 95.8%, the viability, T/C [23] was 104% and the viability, T/C [24] was 94.8%. It also gave a viability, T/C [25] of 92.2%, a viability, T/C [26] of 101% and a viability, T/C [27] of 91.9%. The viability, T/C [28] was 103%, the viability, T/C [29] was 114% and the viability, T/C [30] was 96.9%. For the same molecule, the viability, T/C [31] was 102%, the viability, T/C [32] was 99.3% and the viability, T/C [33] was 97.1%. It also gave a viability, T/C [34] of 99.2%, a viability, T/C [35] of 104% and a viability, T/C [36] of 94.6%.
